These results are taken from patent US12059422B2 (MEI Pharma, Inc., priority 2011, dated 2024).

In one test the target is mTOR (Homo sapiens, UniProt P42345). In words: mTOR inhibition (Table 1). Particulars: Table 1, no method described. The class given is biochemical.
The target of a further test is T1, PI3Kδ (Homo sapiens, UniProt O00329).
T1 construct: endogenous in cells; host or cells: Raji (ATCC #CCL-86)
In words: ELISA assay for PI3Kδ: sandwich ELISA, phosphorylation of AKT (Thr308) in Raji cells. Particulars: for pIC50: cellular, pAKT (Thr308), Raji cells, anti-Human IgM stimulation, read-out: IC50 p110δ; for α/δ ratio / β/δ ratio / γ/δ ratio: ratio of cellular IC50 values, Table 2. In kind it is cell-based. On the procedure: Cellular PI3Kδ activity was determined by measuring the phosphorylation of AKT (Thr308) using a sandwich enzyme-linked immunosorbant assay (ELISA). Raji (Burkitt's Lymphoma) cells were obtained from ATCC (ATCC #CCL-86). Phosphate buffer saline (PBS) contained 2.7 M NaCl, 54 mM KCl, 86 mM […] (dibasic, anhydrous), and 28 mM […] (monobasic, anhydrous) at pH 7.2. Wash buffer contained PBS supplemented with 0.05% Tween-20. Blocking buffer contained wash buffer supplemented with 1% BSA. A 10× stimulation mixture contained 5 μg/mL anti-Human IgM antibody (Sigma #12386) diluted in serum-free RPMI medium (CellGro #CV-10-040-CV). Compounds for testing were dissolved and serially diluted in 100% DMSO (total of 10 concentrations), and then diluted in serum-free RPMI to 5×final assay concentration.
Raji cells were subcultured in RPMI medium supplemented with 10% fetal bovine serum, 100 IU/mL penicillin, 100 μg/mL streptomycin, and 1×MEM non-essential amino acids. Sandwich ELISA plates were prepared by coating 96-well assay plates (Pierce #15042) with 100 μL/well capture antibody (Cell Signaling Technology #7142 or 7144) diluted in PBS. Plates were incubated overnight at 4° C., then washed with wash buffer, after which 200 μL/well blocking buffer was added to the plates and incubated at room temperature for at least 2 hrs. Raji cells were resuspended in serum-free RPMI medium and seeded into V-bottom, 2-mL 96-well blocks (Corning #3961) at 10^6 cells/well, then incubated for 2 hrs in a 37° C., 5% CO2 incubator. Compound treatment was performed by adding the 5× compound mixture to the cells and incubating for 2 hrs at 37° C., 5% CO2, after which the 10× stimulation mixture was added to the plates and incubated for 30 min at 37° C., 5% CO2. Cells were pelleted by centrifuging plates at 1500 RPM for 5 min at room temperature. Media was carefully removed and cells were lysed by adding 100 μL/well cell lysis buffer (Cell Signaling Technology #9803) supplemented with protease and phosphatase inhibitors (Thermo Fisher #78443). Plates were incubated on ice for 30 min, then the lysates (80 μL for pAKT^T308, 10 μL for total AKT) were transferred to prepared assay plates and incubated at 4° C. overnight. After washing plates with wash buffer, 100 μL/well detection antibody (Cell Signaling Technology #7142 or 7144) diluted in blocking buffer was added to the plates and incubated for 1 hr at 37° C. Plates were washed and 100 μL/well of HRP-conjugated secondary antibody (Cell Signaling Technology #7142 or 7144) diluted in blocking buffer was added to plates and incubated for 1 hr at room temperature. Plates were washed with wash buffer and 100 μL/well of luminescent substrate was added to plates. After 1 min on a plate shaker at medium speed, luminescence was read on a Wallac Victor2 plate reader. IC50 values were determined by curve fitting using a Collaborative Drug Discovery database (www.collaborativedrug.com).
(In an ELISA, binding on a coated surface is turned into a signal by an enzyme label.)

In another test the target is T2, PI3K delta (Homo sapiens, UniProt O00329).
T2 construct: purchased Millipore, Billerica, MA, USA
T2 sequence (O00329 whole entry, species assumed): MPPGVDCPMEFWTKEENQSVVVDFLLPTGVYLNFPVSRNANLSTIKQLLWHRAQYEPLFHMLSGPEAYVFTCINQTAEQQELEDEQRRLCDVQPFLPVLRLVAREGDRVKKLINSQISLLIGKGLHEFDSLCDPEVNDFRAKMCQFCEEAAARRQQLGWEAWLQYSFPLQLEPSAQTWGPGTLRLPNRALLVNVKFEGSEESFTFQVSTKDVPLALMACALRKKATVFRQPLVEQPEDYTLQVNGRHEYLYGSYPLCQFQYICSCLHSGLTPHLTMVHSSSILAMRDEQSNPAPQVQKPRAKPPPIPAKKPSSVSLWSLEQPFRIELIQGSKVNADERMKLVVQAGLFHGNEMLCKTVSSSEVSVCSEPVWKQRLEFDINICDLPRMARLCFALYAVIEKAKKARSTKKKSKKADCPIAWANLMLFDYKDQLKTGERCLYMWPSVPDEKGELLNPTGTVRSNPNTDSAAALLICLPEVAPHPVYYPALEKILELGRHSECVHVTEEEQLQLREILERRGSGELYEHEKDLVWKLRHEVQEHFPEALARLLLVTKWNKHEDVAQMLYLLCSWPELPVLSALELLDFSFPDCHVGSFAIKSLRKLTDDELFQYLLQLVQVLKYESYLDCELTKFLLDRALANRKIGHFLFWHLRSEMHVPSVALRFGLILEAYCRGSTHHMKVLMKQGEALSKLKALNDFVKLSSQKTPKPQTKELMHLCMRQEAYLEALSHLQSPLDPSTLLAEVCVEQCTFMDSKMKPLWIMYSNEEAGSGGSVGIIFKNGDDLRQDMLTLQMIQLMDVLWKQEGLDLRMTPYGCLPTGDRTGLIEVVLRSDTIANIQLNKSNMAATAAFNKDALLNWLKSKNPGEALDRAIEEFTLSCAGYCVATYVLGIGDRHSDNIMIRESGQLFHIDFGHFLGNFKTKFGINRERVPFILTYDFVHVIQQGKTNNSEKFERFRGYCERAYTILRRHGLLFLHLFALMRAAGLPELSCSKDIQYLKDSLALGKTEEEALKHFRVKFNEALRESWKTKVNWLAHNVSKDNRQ
T2 sequence (P27986 whole entry partner, species assumed): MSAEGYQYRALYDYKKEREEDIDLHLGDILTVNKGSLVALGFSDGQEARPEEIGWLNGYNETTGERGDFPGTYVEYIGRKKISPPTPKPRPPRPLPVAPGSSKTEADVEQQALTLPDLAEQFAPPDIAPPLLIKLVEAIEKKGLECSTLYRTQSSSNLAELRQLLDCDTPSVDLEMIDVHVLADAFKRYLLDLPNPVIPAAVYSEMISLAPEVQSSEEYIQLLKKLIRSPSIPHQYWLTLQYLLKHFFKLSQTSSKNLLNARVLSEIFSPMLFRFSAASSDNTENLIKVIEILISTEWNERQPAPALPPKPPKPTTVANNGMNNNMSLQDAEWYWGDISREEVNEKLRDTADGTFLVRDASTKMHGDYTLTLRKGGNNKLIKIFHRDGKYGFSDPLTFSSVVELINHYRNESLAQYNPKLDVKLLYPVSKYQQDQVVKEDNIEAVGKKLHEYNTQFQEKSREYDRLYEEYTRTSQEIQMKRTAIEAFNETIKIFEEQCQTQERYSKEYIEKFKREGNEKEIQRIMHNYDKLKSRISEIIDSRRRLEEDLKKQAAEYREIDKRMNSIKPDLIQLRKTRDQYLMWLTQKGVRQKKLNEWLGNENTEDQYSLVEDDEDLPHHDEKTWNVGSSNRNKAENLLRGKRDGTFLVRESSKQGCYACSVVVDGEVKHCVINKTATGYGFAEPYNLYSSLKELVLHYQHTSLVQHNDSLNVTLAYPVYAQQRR
In words: Luciferase-based luminescence assay (KinaseGlo), PI3K delta enzymatic activity. In kind it is biochemical. As to conditions: for pIC50: inhibition of enzymatic activity, KinaseGlo, 25 μM ATP, read-out: IC50 p110δ; for α/δ ratio: ratio of enzymatic IC50 against PI3Kα over IC50 against PI3Kδ; for β/δ ratio / γ/δ ratio: ratio of enzymatic IC50 values, Table 1. In a few lines: (§1)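 KinaseGlo luminescence measured ATP remaining after PIP2 (50 μM) phosphorylation with 25 μM ATP in HEPES pH 7.5 buffer with CHAPS and DTT. Final enzyme was 1.65 nM alpha (1 h reaction) or 6.86 nM delta (2 h reaction). IC50 was curve-fitted from 10 concentrations.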
(In Kinase-Glo more light means more ATP remaining.)

The target of a further test is T3, PI3K alpha (Homo sapiens, UniProt P42336).
T3 construct: purchased Invitrogen Corp., Carlsbad, CA, USA
T3 sequence (P42336 whole entry, species assumed): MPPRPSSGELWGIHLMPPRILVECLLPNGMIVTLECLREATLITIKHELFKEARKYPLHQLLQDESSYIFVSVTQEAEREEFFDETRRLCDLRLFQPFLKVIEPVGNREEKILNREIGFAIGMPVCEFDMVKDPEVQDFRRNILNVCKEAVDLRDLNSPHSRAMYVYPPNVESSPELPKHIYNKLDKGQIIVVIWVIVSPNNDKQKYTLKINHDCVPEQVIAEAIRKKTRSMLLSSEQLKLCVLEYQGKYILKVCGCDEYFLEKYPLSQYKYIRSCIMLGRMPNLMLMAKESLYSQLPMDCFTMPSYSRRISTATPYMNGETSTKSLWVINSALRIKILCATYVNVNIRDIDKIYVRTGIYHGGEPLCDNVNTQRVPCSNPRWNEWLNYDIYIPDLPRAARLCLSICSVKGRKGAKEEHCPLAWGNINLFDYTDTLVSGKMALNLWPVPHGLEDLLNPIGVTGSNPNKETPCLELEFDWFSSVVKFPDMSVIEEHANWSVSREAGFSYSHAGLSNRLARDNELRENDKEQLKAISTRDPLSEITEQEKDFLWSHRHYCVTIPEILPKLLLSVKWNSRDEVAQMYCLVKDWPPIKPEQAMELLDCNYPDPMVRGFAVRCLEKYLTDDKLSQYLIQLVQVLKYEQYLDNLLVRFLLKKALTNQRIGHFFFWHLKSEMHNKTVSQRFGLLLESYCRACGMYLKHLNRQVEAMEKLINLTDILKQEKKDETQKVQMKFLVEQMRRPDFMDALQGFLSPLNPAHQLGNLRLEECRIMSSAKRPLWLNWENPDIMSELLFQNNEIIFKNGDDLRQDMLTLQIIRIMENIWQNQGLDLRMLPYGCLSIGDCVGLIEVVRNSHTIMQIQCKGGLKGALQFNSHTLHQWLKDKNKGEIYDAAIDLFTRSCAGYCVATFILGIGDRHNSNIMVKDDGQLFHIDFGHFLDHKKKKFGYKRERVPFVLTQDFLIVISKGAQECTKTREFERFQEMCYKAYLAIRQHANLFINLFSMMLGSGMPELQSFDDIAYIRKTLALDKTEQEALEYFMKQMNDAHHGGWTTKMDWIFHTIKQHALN
T3 sequence (P27986 whole entry partner, species assumed): as the sequence (P27986 whole entry partner, species assumed) above
In words: Luciferase-based luminescence assay (KinaseGlo), PI3K alpha enzymatic activity. In kind it is biochemical. Particulars: inhibition of enzymatic activity, 25 μM ATP, read-out: IC50 p110α. The procedure, abridged:
as §1

Molecules are shown by their SMILES. pIC50: −log10 of the molar value.

T1 sequence (O00329 whole entry): as the sequence (O00329 whole entry, species assumed) above
T1 sequence (P27986 whole entry partner): as the sequence (P27986 whole entry partner, species assumed) above

`CC(C)(Cc1ccccc1)Nc1nc(N2CCOCC2)nc(-n2c(C(F)F)nc3ccccc32)n1` [Compound A14, 4-(2-(difluoromethyl)-1H-benzo[d]imidazol-1-yl)-N-(2-methyl-1-phenylpropan-2-yl)-6-morpholino-1,3,5-triazin-2-amine] gave a negative logarithm of the IC50 (pIC50) against mTOR of less than 6.30. Besides, on PI3Kδ, the pIC50 is not below 7.00, the α/δ ratio entry was “A’”, the β/δ ratio entry is “A’” and the γ/δ ratio result was “A’”. Moreover, on PI3K delta, the negative-log IC50 (pIC50) is not below 7.00, the α/δ ratio result was “A’”, the β/δ ratio result is given as “D’” and the γ/δ ratio result is on record as “A’”. Further, on PI3K alpha, the negative-log IC50 (pIC50) is less than 6.30.
For the compound `CC(C)(Cc1ccccc1F)Nc1nc(N2CCOCC2)nc(-n2c(C(F)F)nc3ccccc32)n1` [Compound A15, 4-(2-(difluoromethyl)-1H-benzo[d]imidazol-1-yl)-N-(1-(2-fluorophenyl)-2-methylpropan-2-yl)-6-morpholino-1,3,5-triazin-2-amine], the negative-log IC50 (pIC50) against mTOR was less than 6.30; on PI3Kδ, not below 7.00; on PI3K delta it was not below 7.00; at PI3K alpha, less than 6.30. Also, the α/δ ratio entry at PI3Kδ and on PI3K delta was “A’” each time. In addition, the β/δ ratio result at PI3Kδ and at PI3K delta was “C’” in each case. The γ/δ ratio result at PI3Kδ and at PI3K delta was “A’” each time.
Take `CC(C)(Cc1ccccc1Cl)Nc1nc(N2CCOCC2)nc(-n2c(C(F)F)nc3ccccc32)n1` [Compound A16, 4-(2-(difluoromethyl)-1H-benzo[d]imidazol-1-yl)-N-(1-(2-chlorophenyl)-2-methylpropan-2-yl)-6-morpholino-1,3,5-triazin-2-amine]: the pIC50 on mTOR was less than 6.30; at PI3Kδ it was not below 7.00; at PI3K delta, not below 7.00; on PI3K alpha it was less than 6.30. Besides, the α/δ ratio entry on PI3Kδ and at PI3K delta was “A’” each time. The β/δ ratio result on PI3Kδ was “A’”; at PI3K delta, “D’”. For the same compound, the γ/δ ratio result is reported as “A’” at PI3Kδ and “C’” at PI3K delta.
On mTOR, `Cc1ccccc1CC(C)(C)Nc1nc(N2CCOCC2)nc(-n2c(C(F)F)nc3ccccc32)n1` [Compound A18, 4-(2-(difluoromethyl)-1H-benzo[d]imidazol-1-yl)-N-(2-methyl-1-(o-tolyl)propan-2-yl)-6-morpholino-1,3,5-triazin-2-amine] showed a pIC50 of less than 6.30. Moreover, on PI3Kδ, the negative logarithm of the IC50 (pIC50) is not below 7.00, the α/δ ratio entry was “A’”, the β/δ ratio result is listed as “A’” and the γ/δ ratio result is “A’”. For the same compound, at PI3K delta, the pIC50 was not below 7.00, the α/δ ratio result was “A’”, the β/δ ratio result was “D’” and the γ/δ ratio entry is “B’”. In addition, the pIC50 at PI3K alpha was less than 6.30.
Take `COc1ccccc1CC(C)(C)Nc1nc(N2CCOCC2)nc(-n2c(C(F)F)nc3ccccc32)n1` [Compound A19, 4-(2-(difluoromethyl)-1H-benzo[d]imidazol-1-yl)-N-(1-(2-methoxyphenyl)-2-methylpropan-2-yl)-6-morpholino-1,3,5-triazin-2-amine]: the pIC50 against mTOR is less than 6.30; on PI3Kδ, not below 7.00; at PI3K delta, not below 7.00; at PI3K alpha it was less than 6.30. Also, the β/δ ratio entry is “D’” on PI3Kδ and “B’” at PI3K delta. For the same compound, at PI3K delta, the α/δ ratio result was “B’”. Further, at PI3K delta, the γ/δ ratio result is on record as “B’”.
At mTOR, `COc1cccc(CC(C)(C)Nc2nc(N3CCOCC3)nc(-n3c(C(F)F)nc4ccccc43)n2)c1` [Compound A21, 4-(2-(difluoromethyl)-1H-benzo[d]imidazol-1-yl)-N-(1-(3-methoxyphenyl)-2-methylpropan-2-yl)-6-morpholino-1,3,5-triazin-2-amine] had a negative-log IC50 (pIC50) of less than 6.30. In addition, at PI3Kδ, the pIC50 is not below 7.00, the α/δ ratio result was “A’”, the β/δ ratio entry is given as “A’” and the γ/δ ratio entry is “A’”. Moreover, on PI3K delta, the negative logarithm of the IC50 (pIC50) was not below 7.00, the α/δ ratio entry is on record as “A’”, the β/δ ratio entry is given as “B’” and the γ/δ ratio result was “A’”. In addition, the pIC50 at PI3K alpha was less than 6.30.
Consider `CC(C)(Cc1ccc(F)cc1)Nc1nc(N2CCOCC2)nc(-n2c(C(F)F)nc3ccccc32)n1` [Compound A22, 4-(2-(difluoromethyl)-1H-benzo[d]imidazol-1-yl)-N-(1-(4-fluorophenyl)-2-methylpropan-2-yl)-6-morpholino-1,3,5-triazin-2-amine], for which the negative logarithm of the IC50 (pIC50) is less than 6.30 against mTOR, not below 7.00 at PI3Kδ, not below 7.00 on PI3K delta and less than 6.30 at PI3K alpha. The α/δ ratio result at PI3Kδ and on PI3K delta was “A’” each time. Moreover, the β/δ ratio entry on PI3Kδ was “A’”; on PI3K delta it was “C’”. For the same compound, the γ/δ ratio entry on PI3Kδ and on PI3K delta was “A’” each time.
`CC(C)(Cc1cccc2ccccc12)Nc1nc(N2CCOCC2)nc(-n2c(C(F)F)nc3ccccc32)n1` [Compound A27, 4-(2-(difluoromethyl)-1H-benzo[d]imidazol-1-yl)-N-(2-methyl-1-(naphthalen-1-yl)propan-2-yl)-6-morpholino-1,3,5-triazin-2-amine]: on mTOR, the negative logarithm of the IC50 (pIC50) is less than 6.30. For the same compound, at PI3Kδ, the pIC50 is not below 7.00 and the β/δ ratio result is “C’”. Further, on PI3K delta, the pIC50 was not below 7.00, the α/δ ratio result is “A’”, the β/δ ratio entry is on record as “D’” and the γ/δ ratio entry is reported as “D’”. Also, the negative-log IC50 (pIC50) at PI3K alpha is less than 6.30.
`CC(C)(Cc1ccccc1-c1ccncc1)Nc1nc(N2CCOCC2)nc(-n2c(C(F)F)nc3ccccc32)n1` [Compound A33, 4-(2-(difluoromethyl)-1H-benzo[d]imidazol-1-yl)-N-(2-methyl-1-(2-(pyridin-4-yl)phenyl)propan-2-yl)-6-morpholino-1,3,5-triazin-2-amine] showed a pIC50 on mTOR of less than 6.30. At PI3Kδ, the pIC50 is not below 7.00, the β/δ ratio result is listed as “A’” and the γ/δ ratio entry is reported as “A’”. At PI3K delta, the pIC50 is not below 7.00, the α/δ ratio entry is listed as “A’”, the β/δ ratio entry is recorded as “D’” and the γ/δ ratio result is on record as “A’”. Also, the negative-log IC50 (pIC50) on PI3K alpha was 6.30 to 6.70.
For the compound `CN1CCC(c2ccccc2CC(C)(C)Nc2nc(N3CCOCC3)nc(-n3c(C(F)F)nc4ccccc43)n2)CC1` [Compound A35, 4-(2-(difluoromethyl)-1H-benzo[d]imidazol-1-yl)-N-(2-methyl-1-(2-(1-methylpiperidin-4-yl)phenyl)propan-2-yl)-6-morpholino-1,3,5-triazin-2-amine], the negative-log IC50 (pIC50) against mTOR was less than 6.30. Moreover, on PI3Kδ, the negative-log IC50 (pIC50) is not below 7.00, the α/δ ratio entry is recorded as “A’”, the β/δ ratio result is listed as “A’” and the γ/δ ratio entry was “A’”. Besides, at PI3K delta, the pIC50 was not below 7.00, the α/δ ratio entry was “A’”, the β/δ ratio result is “A’” and the γ/δ ratio result is given as “A’”. Besides, the negative-log IC50 (pIC50) at PI3K alpha is less than 6.30.
Consider `CN1CCC(c2ccccc2CC(C)(C)Nc2nc(N3CCOCC3)nc(-n3c(C(F)F)nc4ccccc43)n2)C1` (stereo not drawn) [Compound A75, 4-(2-(difluoromethyl)-1H-benzo[d]imidazol-1-yl)-N-(2-methyl-1-(2-(1-methylpyrrolidin-3-yl)phenyl)propan-2-yl)-6-morpholino-1,3,5-triazin-2-amine], for which, at PI3Kδ, the pIC50 is not below 7.00, the α/δ ratio entry is on record as “A’”, the β/δ ratio result was “B’” and the γ/δ ratio entry is listed as “A’”.

A word on the pIC50: it is the IC50 on a negative log10 scale, so that one unit is a factor of ten.
